Measurements from US20240287046A1, “COMPOUNDS AND RADIOLIGANDS FOR TARGETING NEUROTENSIN RECEPTOR AND USES THEREOF” (Full-Life Technologies HK Limited, priority 2022, published 2024).

Experiments:
[1] = Stability of ^177Lu labeled complexes in PBS by radio-HPLC; type: physicochemical; conditions: incubation at room temperature over 120 h in PBS (pH 7.4) or PBS with 3 mg/mL ascorbic acid
Protocol: Exemplary compounds of the present application were labeled with ^177Lu to evaluate stability of the compounds after radionuclide labeling. Briefly, 4 μL exemplary compounds in DMSO stock solution (2000 μM) and 2 mCi ^177Lu (ITM Isotope Technologies Munich) were mixed together in 0.5 M NaOAc buffer (20-50 μL, pH=4.5), followed by incubation at 95° C. for 15 min. Then the labeled complexes were subject to radio-TLC analysis (a polyamide film using methanol and 1M ammonium acetate as the mobile phase, v/v: 4:1, detected by Mini Scan) and radio-HPLC analysis (column: Shim-pack GIST 5 μm 4.6*150 mm; buffer A: 0.2% formic acid H2O; buffer B: 0.1% formic acid acetonitrile; flow rate: 1 mL/min; gradient: 0-5 min: 10% B to 95% B; then 5-8 min: 95% B).
After radionuclide labeling, the complexes were diluted to ˜1.5 mCi/0.30 mL by PBS (pH 7.4) or PBS with 3 mg/mL ascorbic acid (pH 7.4). Then the diluted samples were incubated at room temperature, followed by stability analysis via radio-HPLC at 0, 4, 24, 48, 72, 120 h of incubation, respectively. FIG. 1 illustrates stability analysis of a representative complex ^177Lu—I-7.

[2] = test system: ASPC-1 tumor-bearing mice; test: SPECT/CT imaging of ^177Lu-labeled complexes; type: in vivo; conditions: over 72 hours
Protocol: ASPC-1 tumor-bearing mice were IV-injected with about 120 μCi of ^177Lu-labeled complexes, then anesthetized under 2% isoflurane/oxygen gas and placed on the scanner. SPECT/CT images were acquired in three bed positions for 30 min using a MILabs SPECT scanner. Whole-body SPECT images were acquired at 1 h, 4 h, 24 and 72 h after injecting the radiotracers.

HT-29 tumor-bearing mice = test: Biodistribution of radionuclide labeled complexes in HT-29 tumor-bearing mice; type: in vivo, BALB/c nude mice
Protocol: The BALB/c nude mice (Charles River, Beijing) were utilized to establish the xenografted model for biodistribution study. All animal care and experimental procedure were performed by following the animal protocols approved by the ethics committee of China Institute of Radiation Protection.
Briefly, each mouse was inoculated with approximately 4×10^6 ASPC-1 cells (human pancreatic cancer cell line) or HT-29 cells (human colorectal adenocarcinoma cell line) expressing human NTSR-1 by subcutaneous injection at rear flank. After inoculation, the xenografted tumors were allowed to grow for ˜2-4 weeks till the tumor weight reached to about 0.05 to 0.50 g (0.20 g in average).
Biodistribution studies were performed by administrating the radionuclide labeled test compound at a dose of ˜30-50 μCi (100 μL in 0.9% NaCl, ˜1.11-1.85 MBq, with specific activity 30-250 μCi/nmol) to each animal through tail vein injection.
At different time points after the administration, the mice treated with each compound were euthanized. The tissues and organs of the animals in each group were collected, excised, weighed, and analyzed in a PerkinElmer 2480 WIZARD2γ counter, and the percent injected dose (% ID) and % ID/g of each organ or tissue were calculated.

## COc1cccc(OC)c1-c1cc(C(=O)NC2(C(=O)O)C3CC4CC(C3)CC2C4)nn1-c1ccc(OCCCN(C)CCCN(C)C(=O)CN2CCN(CC(=O)[O-])CCN(CC(=O)[O-])CCN(CC(=O)[O-])CC2)cc1C(C)C.[177Lu+3] (centres unmarked) [^177Lu-I-7]
[1]
  stability of the labeled complex: remained stable and no significant degradation was detected
[2]
  clearance from other organs or tissues (SPECT/CT): rapid clearance
  retention in tumors (SPECT/CT): sustained retention in tumors
HT-29 tumor-bearing mice; Blood, 1 h
  % ID/g (1 h) Blood: 16.51 ± 0.56 % ID/g
HT-29 tumor-bearing mice; Blood, 4 h
  % ID/g (4 h) Blood: 2.85 ± 1.23 % ID/g
HT-29 tumor-bearing mice; Blood, 24 h
  % ID/g (24 h) Blood: 0.06 ± 0.02 % ID/g
HT-29 tumor-bearing mice; Blood, 72 h
  % ID/g (72 h) Blood: 0.03 ± 0 % ID/g
HT-29 tumor-bearing mice; Blood, 120 h
  % ID/g (120 h) Blood: 0.01 ± 0 % ID/g
HT-29 tumor-bearing mice; Femur, 1 h
  % ID/g (1 h) Femur: 1.95 ± 1.15 % ID/g
HT-29 tumor-bearing mice; Femur, 4 h
  % ID/g (4 h) Femur: 0.56 ± 0.23 % ID/g
HT-29 tumor-bearing mice; Femur, 24 h
  % ID/g (24 h) Femur: 0.11 ± 0.02 % ID/g
HT-29 tumor-bearing mice; Femur, 72 h
  % ID/g (72 h) Femur: 0.06 ± 0.03 % ID/g
HT-29 tumor-bearing mice; Femur, 120 h
  % ID/g (120 h) Femur: 0.07 ± 0.02 % ID/g
HT-29 tumor-bearing mice; Heart, 1 h
  % ID/g (1 h) Heart: 5.28 ± 0.74 % ID/g
HT-29 tumor-bearing mice; Heart, 4 h
  % ID/g (4 h) Heart: 1.31 ± 0.53 % ID/g
HT-29 tumor-bearing mice; Heart, 24 h
  % ID/g (24 h) Heart: 0.16 ± 0.01 % ID/g
HT-29 tumor-bearing mice; Heart, 72 h
  % ID/g (72 h) Heart: 0.11 ± 0.01 % ID/g
HT-29 tumor-bearing mice; Heart, 120 h
  % ID/g (120 h) Heart: 0.05 ± 0.03 % ID/g
HT-29 tumor-bearing mice; Intestine, 1 h
  % ID/g (1 h) Intestine: 2.84 ± 1.07 % ID/g
HT-29 tumor-bearing mice; Intestine, 4 h
  % ID/g (4 h) Intestine: 1.71 ± 0.23 % ID/g
HT-29 tumor-bearing mice; Intestine, 24 h
  % ID/g (24 h) Intestine: 0.66 ± 0.29 % ID/g
HT-29 tumor-bearing mice; Intestine, 72 h
  % ID/g (72 h) Intestine: 0.29 ± 0.23 % ID/g
HT-29 tumor-bearing mice; Intestine, 120 h
  % ID/g (120 h) Intestine: 0.19 ± 0.01 % ID/g
HT-29 tumor-bearing mice; Kidney, 1 h
  % ID/g (1 h) Kidney: 4.41 ± 2.41 % ID/g
HT-29 tumor-bearing mice; Kidney, 4 h
  % ID/g (4 h) Kidney: 1.73 ± 0.79 % ID/g
HT-29 tumor-bearing mice; Kidney, 24 h
  % ID/g (24 h) Kidney: 1.43 ± 1.04 % ID/g
HT-29 tumor-bearing mice; Kidney, 72 h
  % ID/g (72 h) Kidney: 0.7 ± 0.3 % ID/g
HT-29 tumor-bearing mice; Kidney, 120 h
  % ID/g (120 h) Kidney: 0.4 ± 0.15 % ID/g
HT-29 tumor-bearing mice; Liver, 1 h
  % ID/g (1 h) Liver: 4.35 ± 1.78 % ID/g
HT-29 tumor-bearing mice; Liver, 4 h
  % ID/g (4 h) Liver: 2.59 ± 1.08 % ID/g
HT-29 tumor-bearing mice; Liver, 24 h
  % ID/g (24 h) Liver: 0.85 ± 0.38 % ID/g
HT-29 tumor-bearing mice; Liver, 72 h
  % ID/g (72 h) Liver: 0.57 ± 0.21 % ID/g
HT-29 tumor-bearing mice; Liver, 120 h
  % ID/g (120 h) Liver: 0.24 ± 0.04 % ID/g
HT-29 tumor-bearing mice; Lung, 1 h
  % ID/g (1 h) Lung: 4.47 ± 3.31 % ID/g
HT-29 tumor-bearing mice; Lung, 4 h
  % ID/g (4 h) Lung: 1.81 ± 0.77 % ID/g
HT-29 tumor-bearing mice; Lung, 24 h
  % ID/g (24 h) Lung: 0.35 ± 0.14 % ID/g
HT-29 tumor-bearing mice; Lung, 72 h
  % ID/g (72 h) Lung: 0.23 ± 0.01 % ID/g
HT-29 tumor-bearing mice; Lung, 120 h
  % ID/g (120 h) Lung: 0.07 ± 0.02 % ID/g
HT-29 tumor-bearing mice; Muscle, 1 h
  % ID/g (1 h) Muscle: 2.2 ± 1.08 % ID/g
HT-29 tumor-bearing mice; Muscle, 4 h
  % ID/g (4 h) Muscle: 0.44 ± 0.26 % ID/g
HT-29 tumor-bearing mice; Muscle, 24 h
  % ID/g (24 h) Muscle: 0.05 ± 0.03 % ID/g
HT-29 tumor-bearing mice; Muscle, 72 h
  % ID/g (72 h) Muscle: 0.03 ± 0.01 % ID/g
HT-29 tumor-bearing mice; Muscle, 120 h
  % ID/g (120 h) Muscle: 0.04 ± 0.02 % ID/g
HT-29 tumor-bearing mice; Pancreas, 1 h
  % ID/g (1 h) Pancreas: 1.48 ± 0.29 % ID/g
HT-29 tumor-bearing mice; Pancreas, 4 h
  % ID/g (4 h) Pancreas: 0.38 ± 0.17 % ID/g
HT-29 tumor-bearing mice; Pancreas, 24 h
  % ID/g (24 h) Pancreas: 0.07 ± 0.04 % ID/g
HT-29 tumor-bearing mice; Pancreas, 72 h
  % ID/g (72 h) Pancreas: 0.03 ± 0.01 % ID/g
HT-29 tumor-bearing mice; Pancreas, 120 h
  % ID/g (120 h) Pancreas: 0.04 ± 0.01 % ID/g
HT-29 tumor-bearing mice; Spleen, 1 h
  % ID/g (1 h) Spleen: 1.73 ± 1.08 % ID/g
HT-29 tumor-bearing mice; Spleen, 4 h
  % ID/g (4 h) Spleen: 0.71 ± 0.41 % ID/g
HT-29 tumor-bearing mice; Spleen, 24 h
  % ID/g (24 h) Spleen: 0.14 ± 0.03 % ID/g
HT-29 tumor-bearing mice; Spleen, 72 h
  % ID/g (72 h) Spleen: 0.08 ± 0.01 % ID/g
HT-29 tumor-bearing mice; Spleen, 120 h
  % ID/g (120 h) Spleen: 0.1 ± 0.04 % ID/g
HT-29 tumor-bearing mice; Stomach, 1 h
  % ID/g (1 h) Stomach: 2.58 ± 1.00 % ID/g
HT-29 tumor-bearing mice; Stomach, 4 h
  % ID/g (4 h) Stomach: 0.76 ± 0.38 % ID/g
HT-29 tumor-bearing mice; Stomach, 24 h
  % ID/g (24 h) Stomach: 0.14 ± 0.03 % ID/g
